These results are taken from patent US20260306460A1, “COMPOSITION FOR REMOVING AND INHIBITING SENESCENT CELLS, AND USES THEREOF” (LIFECEUTIX CO., LTD., priority 2023, published 2026).

One test deals with senescent A549 cells. The test is described as follows: Viability of senescent A549 cells (CellTiter-Glo), Example 18, Table 15. Particulars: Homo sapiens, A549, read-out: Survival (%).
A further test has as its system senescent cells. The test is described as follows: Viability of senescent cells (CellTiter-Glo), Example 17, Table 13. Particulars: Homo sapiens, read-out: Survival (%).
In test [1] the test system is carbon tetrachloride-induced liver fibrosis mice. The test is described as follows: Carbon tetrachloride-induced liver fibrosis mice, Example 31, Table 57. Type of test: in vivo, mouse. The conditions noted are these: CCl4-induced liver fibrosis mice, untreated = 100%. In outline: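 Mice with induced hepatic fibrosis received either the test compound or, as controls, an equal volume of vehicle solution alone. Once dosing ended, liver tissue was harvested and total RNA was isolated. cDNA was synthesized from this RNA, and quantitative RT-PCR was run on it to measure hepatic mRNA levels of the fibrosis- and senescence-related genes.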

The subject of a further test is naturally aged mice. Briefly: Anti-aging evaluation in naturally aged mice, Example 31, Table 55.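 For all read-outs here: Vehicle-dosed control mice received solution alone at matching volume, values compare test-compound-treated aged mice against that control.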 Type of test: in vivo, mouse. Particulars: for Femur Ctsk mRNA / Kidney Agtr1a mRNA / Liver IL6 mRNA / Liver MMP3 mRNA / Liver p16 mRNA / Open Field Test Time in Center: untreated = 100%; for Heart Sur2a mRNA / Joint Col2a1 mRNA / Skin Col1a1 mRNA / Skin SDF1 mRNA: untreated = 1.0; for Muscle Mass: untreated 0.64 g; for Fat Mass: untreated 0.82 g; for Cataract incidence: untreated 83%.

Test [2] has as its system bleomycin-induced pulmonary fibrosis mice. Briefly: Bleomycin-induced pulmonary fibrosis mice, Example 31, Table 56. The class given is in vivo, mouse. Particulars: untreated = 100%. The method, boiled down:
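Mice with bleomycin-induced pulmonary fibrosis, untreated or given test compound, with vehicle-only controls. Lung tissue collected for RNA extraction and qRT-PCR analysis.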

Procedure for senescent A549 cells: Senescence-induced cancer cells treated with doxorubicin were treated with the test compound at designated concentrations, and cell viability was measured using the CellTiter-Glo Luminescent Cell Viability Assay (Promega).
Procedure for senescent cells: Cells induced to undergo senescence by doxorubicin treatment were treated with test compound at designated concentrations and measured using the CellTiter-Glo Luminescent Cell Viability Assay (Promega).

Consider `CC12CCN(CC1)C(CN(C1CC1)S(C)(=O)=O)C2=O` (stereo not shown) [LX-5707], for which, in the test with senescent A549 cells, the viability at 1.1 µM was 81%, the viability at 10 µM was 37.3% and the viability at 30 µM is 4.3%. Further, in the test with senescent cells, the viability at 1.1 µM worked out at 103% and the viability at 10 µM amounted to 27.3%. In test [1], the “Liver p16 mRNA” value is given as 64 (±8.3) % and the “Col1a1 mRNA” value is given as 72 (±9.6) %. For the same compound, in the test with naturally aged mice, the “Femur Ctsk mRNA” value amounted to 64%, the “Heart Sur2a mRNA” value is listed as 2.3 fold, the “Joint Col2a1 mRNA” value amounted to 2.0 fold and the “Kidney Agtr1a mRNA” value is 65%. In addition, in the test with naturally aged mice, the “Liver IL6 mRNA” value turned out to be 61%, the “Liver MMP3 mRNA” value came out at 63%, the “Liver p16 mRNA” value amounted to 59% and the “Open Field Test Time in Center” value came out at 199%. In addition, in the test on naturally aged mice, the “Skin Col1a1 mRNA” value is 1.7 Fold, the “Skin SDF1 mRNA” value was 1.6 fold, the “Muscle Mass” value came to 0.70 g and the “Fat Mass” value worked out at 0.90 g. The same compound returned a Cataract incidence in the test on naturally aged mice of 70%. Further, in test [2], the “Lung p16 mRNA” value is 72 (±8.9) % and the “Col1a1 mRNA” value was 69 (±7.1) %.
For the compound `CC12CCN(CC1)C(CNC(=O)C(F)(F)F)C2=O` (stereo not shown) [LX-5706], in the test with senescent A549 cells, the viability at 1.1 µM turned out to be 88.5%, the viability at 10 µM was 31% and the viability at 30 µM was determined as 0.3%. Further, in the test with senescent cells, the viability at 1.1 µM came to 96.5% and the viability at 10 µM was found to be 12.7%. In addition, in test [1], the “Liver p16 mRNA” value was 69 (±6.9) % and the “Col1a1 mRNA” value is reported as 70 (±4.8) %. Besides, in the test on naturally aged mice, the “Femur Ctsk mRNA” value was found to be 68%, the “Heart Sur2a mRNA” value is reported as 2 fold, the “Joint Col2a1 mRNA” value amounted to 1.9 fold and the “Kidney Agtr1a mRNA” value stood at 70%. Moreover, in the test with naturally aged mice, the “Liver IL6 mRNA” value is listed as 71%, the “Liver MMP3 mRNA” value was determined as 60%, the “Liver p16 mRNA” value worked out at 64% and the “Open Field Test Time in Center” value was found to be 171%. In the test on naturally aged mice, the “Skin Col1a1 mRNA” value is reported as 1.6 Fold, the “Skin SDF1 mRNA” value stood at 1.4 fold, the “Muscle Mass” value was 0.69 g and the “Fat Mass” value was found to be 0.85 g. The compound also had a Cataract incidence in the test with naturally aged mice of 74%. Further, in test [2], the “Lung p16 mRNA” value is 76 (±6.1) % and the “Col1a1 mRNA” value is on record as 79 (±5.2) %.
For the compound `CN[C@H](CC(C)C)C(=O)N[C@H]1C(=O)N[C@@H](CC(N)=O)C(=O)N[C@H]2C(=O)N[C@H]3C(=O)N[C@H](C(=O)N[C@H](C(=O)O)c4cc(O)cc(O)c4-c4cc3ccc4O)[C@H](O)c3ccc(c(Cl)c3)Oc3cc2cc(c3O[C@@H]2O[C@H](CO)[C@@H](O)[C@H](O)[C@H]2O[C@H]2C[C@](C)(N)[C@H](O)[C@H](C)O2)Oc2ccc(cc2Cl)[C@H]1O` [LX-5424, Vancomycin], in the test on senescent A549 cells, the viability at 1.1 µM was 98.9%, the viability at 10 µM is 74.3% and the viability at 30 µM is 21.8%. Moreover, in the test with senescent cells, the viability at 1.1 µM is 106%, the viability at 10 µM was 62.5% and the viability at 30 µM was 10.5%. Further, in test [1], the “Liver p16 mRNA” value is given as 79 (±5.6) % and the “Col1a1 mRNA” value is reported as 51 (±4.7) %. In the test with naturally aged mice, the “Femur Ctsk mRNA” value is 70%, the “Heart Sur2a mRNA” value is given as 2.3 fold, the “Joint Col2a1 mRNA” value is reported as 1.5 fold and the “Kidney Agtr1a mRNA” value was 68%. Further, in the test with naturally aged mice, the “Liver IL6 mRNA” value came to 45%, the “Liver MMP3 mRNA” value turned out to be 59%, the “Liver p16 mRNA” value is reported as 72% and the “Open Field Test Time in Center” value stood at 191%. Moreover, in the test with naturally aged mice, the “Skin Col1a1 mRNA” value is 1.6 Fold, the “Skin SDF1 mRNA” value stood at 1.7 fold, the “Muscle Mass” value was 0.67 g and the “Fat Mass” value is 0.84 g. In the test with naturally aged mice, this compound came in with a Cataract incidence of 76%. Also, in test [2], the “Lung p16 mRNA” value is listed as 70 (±3.5) % and the “Col1a1 mRNA” value is listed as 73 (±2.7) %.
With `[2H]C12CCN(CC1)C(CO)(COC)C2=O` (stereo not shown) [LX-5722], in the test on senescent A549 cells, the viability at 1.1 µM was 99% and the viability at 10 µM came out at 4.1%. For the same compound, in the test with senescent cells, the viability at 1.1 µM was 91.5%, the viability at 10 µM amounted to 34.1% and the viability at 30 µM came out at 1.8%. In test [1], the “Liver p16 mRNA” value is on record as 69 (±6.2) % and the “Col1a1 mRNA” value is on record as 76 (±6.4) %. In addition, in the test on naturally aged mice, the “Femur Ctsk mRNA” value came to 59%, the “Heart Sur2a mRNA” value was found to be 2.4 fold, the “Joint Col2a1 mRNA” value came out at 2.1 fold and the “Kidney Agtr1a mRNA” value was found to be 52%. In addition, in the test on naturally aged mice, the “Liver IL6 mRNA” value was 73%, the “Liver MMP3 mRNA” value was 63%, the “Liver p16 mRNA” value is 46% and the “Open Field Test Time in Center” value was 222%. Also, in the test on naturally aged mice, the “Skin Col1a1 mRNA” value was 1.8 Fold, the “Skin SDF1 mRNA” value is listed as 1.6 fold, the “Muscle Mass” value came to 0.70 g and the “Fat Mass” value is given as 1.03 g. The compound further came in with a Cataract incidence with naturally aged mice of 69%. In test [2], the “Lung p16 mRNA” value is reported as 73 (±5.5) % and the “Col1a1 mRNA” value is listed as 78 (±7.2) %.
Turning to `C=C1CC[C@@H]2[C@](C)(CO)[C@H](O)CC[C@@]2(C)[C@@H]1C/C=C1/C(=O)OC[C@H]1O` [LX-6800, Andrographolide], in the test on senescent A549 cells, the viability at 1.1 µM came to 80.9%, the viability at 10 µM was determined as 70.9%, the viability at 30 µM came to 43.8% and the viability at 90 µM stood at 17%. Moreover, in the test with senescent cells, the viability at 1.1 µM was found to be 81.6%, the viability at 10 µM worked out at 56.5% and the viability at 30 µM was 2.2%. For the same compound, in test [1], the “Liver p16 mRNA” value was 80 (±4.9) % and the “Col1a1 mRNA” value is recorded as 76 (±2.7) %. Besides, in the test on naturally aged mice, the “Femur Ctsk mRNA” value is listed as 58%, the “Heart Sur2a mRNA” value turned out to be 2.3 fold, the “Joint Col2a1 mRNA” value amounted to 2.4 fold and the “Kidney Agtr1a mRNA” value was determined as 78%. In the test with naturally aged mice, the “Liver IL6 mRNA” value is on record as 56%, the “Liver MMP3 mRNA” value is on record as 77%, the “Liver p16 mRNA” value turned out to be 73% and the “Open Field Test Time in Center” value is 154%. Moreover, in the test with naturally aged mice, the “Skin Col1a1 mRNA” value came out at 2.1 Fold, the “Skin SDF1 mRNA” value is recorded as 2.0 fold, the “Muscle Mass” value was 0.70 g and the “Fat Mass” value is reported as 0.91 g. Besides, the Cataract incidence with naturally aged mice was 75%. In test [2], the “Lung p16 mRNA” value was 78 (±3.8) % and the “Col1a1 mRNA” value is 62 (±3.6) %.
Turning to `C[C@@H](C(=O)Nc1ccc(Cl)cc1)[C@H]1CC[C@@H](c2ccnc3ccc(F)cc32)CC1` [LX-8805, Linrodostat], in the test with senescent A549 cells, the viability at 1.1 µM came to 103%, the viability at 10 µM was determined as 58.3% and the viability at 30 µM came to 32.8%. Moreover, in the test on senescent cells, the viability at 1.1 µM worked out at 99.1%, the viability at 10 µM was found to be 42.1% and the viability at 30 µM is 21.8%. Also, in test [1], the “Liver p16 mRNA” value is on record as 60 (±3.9) % and the “Col1a1 mRNA” value is reported as 36 (±3.4) %. Also, in the test on naturally aged mice, the “Femur Ctsk mRNA” value stood at 58%, the “Heart Sur2a mRNA” value was determined as 2.6 fold, the “Joint Col2a1 mRNA” value came out at 2.6 fold and the “Kidney Agtr1a mRNA” value turned out to be 55%. Further, in the test with naturally aged mice, the “Liver IL6 mRNA” value came out at 25%, the “Liver MMP3 mRNA” value was determined as 67%, the “Liver p16 mRNA” value is given as 47% and the “Open Field Test Time in Center” value is reported as 217%. For the same compound, in the test with naturally aged mice, the “Skin Col1a1 mRNA” value came out at 1.7 Fold, the “Skin SDF1 mRNA” value is 1.9 fold, the “Muscle Mass” value worked out at 0.72 g and the “Fat Mass” value amounted to 0.87 g. Further, the Cataract incidence with naturally aged mice came to 68%. For the same compound, in test [2], the “Lung p16 mRNA” value was 40 (±2.1) % and the “Col1a1 mRNA” value was 70 (±4.6) %.
